US20250375436A1, “SERDEXMETHYLPHENIDATE FOR TREATMENT OF IDIOPATHIC HYPERSOMNIA” (ZEVRA THERAPEUTICS, INC., priority 2024, published 2025)

Tests used:
Type in all cases: in vivo, human
[1] = Single oral dose of 240 mg serdexmethylphenidate in the morning or at night before bedtime, randomized crossover; plasma d-MPH PK by LC/MS-MS; conditions: evening vs morning dosing
Protocol: Heathy adult subjects received single oral doses of 240 mg serdexmethylphenidate, either in the morning or at night, just before bedtime, in a randomized crossover fashion with a washout of 6 days between treatments. Subjects went to bed and nighttime conditions were maintained after administration of the evening dose. Multiple blood PK samples and safety parameters were collected after each administration. d-MPH was measured with a validated LC/MS-MS method. A total of 15 subjects (9 males/6 females) were randomized with 14 completing both treatments.

adults with IH [2] = test: Phase 2 IH study: Epworth Sleepiness Scale (ESS); conditions: for ESS, Mean, Titration Baseline: before treatment; for ESS, Mean, Randomization Baseline (Week 5): end of open-label titration; for ESS, Difference in LS Mean (SE): SDX vs placebo, ANCOVA
Description: “Epworth Sleepiness Scale” or “ESS,” as it relates to the present technology, means a self-administered questionnaire with 8 questions. Respondents are asked to rate, on a 4-point scale (0-3), their usual chances of dozing off or falling asleep while engaged in eight different activities. Most people engage in those activities at least occasionally, although not necessarily every day. The ESS score (the sum of 8 item scores, 0-3) can range from 0 to 24. The higher the ESS score, the higher that person's average sleep propensity in daily life (ASP), or their ‘daytime sleepiness’. ESS score are generally interpreted as follows: 0-5, lower normal daytime sleepiness; 6-10 higher normal daytime sleepiness; 11-12, mild excessive daytime sleepiness; 13-15, moderate excessive daytime sleepiness; and 16-24, severe excessive daytime sleepiness. [https://epworthsleepinessscale.com/about-theess/]herein incorporated by reference.
(§1) A double-blind, placebo-controlled, randomized-withdrawal, dose-optimizing, multi-center study investigated the safety and efficacy of serdexmethylphenidate for the treatment of IH. Twenty-two (22) patients completed a 7-week study consisting of two parts. Part 1 of the trial comprised a five-week open-label titration phase during which patients were optimized to one of four total daily doses of serdexmethylphenidate (80, 160, 240, or 320 mg/day). About half the study participants were assigned to take the total daily dose of study drug once per day just before going to bed (QD dosing cohort). The other half was instructed to take half the daily dose of study drug in the morning after awakening and the second half of the daily dose just before going to bed (BID dosing cohort). The titration procedure during the 5-week open label period was conducted as follows: patient treatment was initiated with the lowest total daily dose (80 mg/day) regardless of dosing regimen. At subsequent clinical visits scheduled at intervals of about 1 week each, the dose of the patient was either decreased (except after the first week), maintained, or increased based on tolerability, clinical effect, and adverse events. Depending on the severities of any dose-limiting effects as determined by the clinician, the dose was decreased if possible or the patient was discontinued from the study. If the dose was tolerated by the patient and the clinician determined an opportunity to improve effectiveness, the dose of study drug was increased if possible. Otherwise, the dose was maintained in the subsequent week.
(§2) Part 2 of the trial comprised a two-week randomized (2:1), double-blind, withdrawal phase, during which two-thirds of the trial participants continued to receive their optimized dose while the remaining one-third received placebo. During the withdrawal phase, patients continued the same dosing regimen (QD or BID) they were assigned to at treatment initiation and adhered to during the titration phase.
(§3) Secondary efficacy endpoints included Excessive Daytime Sleepiness (EDS) assessed with the Epworth Sleepiness Scale (ESS). Additional secondary endpoints were based on the Idiopathic Hypersomnia Severity Scale (IHSS), daily rating of difficulty of waking up in the morning assessed with the Sleep Inertia Visual Analog Scale (SI-VAS), and rating of brain fog symptoms measured with an exploratory Brain Fog Scale (BFS). Scores on the ESS, IHSS, and BFS were based on a 1-week look-back period.
The minimally clinically important difference for the ESS scale is 2-3 points. The horizontal dashed line at an ESS score of 10 points marks the boundary between “normal” levels of daytime sleepiness and “excessive” levels of daytime sleepiness. Scores of 10 and less are generally considered “healthy” or “normal” levels of daytime sleepiness whereas scores greater than 10 are considered “excessive”.

adults with IH [3] = test: Phase 2 IH study: Idiopathic Hypersomnia Severity Scale (IHSS); conditions: for IHSS, Mean, Titration Baseline: before treatment; for IHSS, Mean, Randomization Baseline (Week 5): end of open-label titration; for IHSS, Difference in LS Mean (SE): SDX vs placebo, ANCOVA
Description: “Idiopathic Hypersomnia Severity Scale” or “IHSS,” as it relates to the present technology, means a self-administered 14 question survey. Respondents are asked to rate on a 4-point scale (0-3) the severity of IH symptoms such as prolonged and/or unrefreshing daytime and nighttime sleep; impaired daytime alertness, and sleep inertia. The total possible score is 50 if all questions are rated at the maximum score. IHSS scores are generally interpreted as follows: 0-12, mild; 13-25, moderate; 26-38, severe; and 39-50, very severe.
as §1, §2, §3
The minimally clinically important difference for the IHSS is 4 points. The horizontal dashed line at an IHSS score of 22 points marks the boundary between “normal” individuals and individuals that may have a sleep disorder with more severe symptoms of idiopathic hypersomnia. Scores of 22 and less are generally considered “healthy” or “normal” whereas scores greater than 22 indicate symptoms of idiopathic hypersomnia.

adults with IH [4] = test: Phase 2 IH study: Sleep Inertia Visual Analog Scale (SI-VAS); conditions: BID Cohort, SDX (N = 17)
Description: “Sleep Inertia Visual Analog Scale” or “SI-VAS,” as it relates to the present technology, is a psychometric response scale to assess how difficult it was for the patient to wake up in the morning. The SI-VAS is a unipolar scale anchored at 0 (“very easy”) and 100 (“very difficult”).
as §1, §2, §3
The SI-VAS is a unipolar scale anchored at 0 (“very easy”) and 100 (“very difficult”). The horizontal dashed line at an SI-VAS score of 50 points represents the midpoint between individuals finding it very easy to awaken and individuals finding it very difficult to awaken in the morning. SI-VAS Patients on the QD dosing schedule reported a decrease of about 33 points in mean SI-VAS score over the 5-week titration period while being treated with conjugate of d-methylphenidate, while patients on the BID dosing schedule reported a decrease in mean SI-VAS of about 24-30 points.

COC(=O)[C@H](c1ccccc1)[C@H]1CCCCN1C(=O)OC[n+]1cccc(C(=O)N[C@@H](CO)C(=O)O)c1 [SDX, serdexmethylphenidate]
Total plasma exposure to d-methylphenidate (AUC0-24h and AUCinf) [1]: similar
ESS, Mean Change from Randomization Baseline to Week 7 (adults with IH [2]; BID Cohort, SDX (N = 17)): 0.1
ESS, Mean, End of Withdrawal Period (Week 7) (adults with IH [2]; BID Cohort, SDX (N = 17)): 7.6
ESS, Mean, Titration Baseline (adults with IH [2]; BID Cohort, SDX (N = 17)): 16.5
ESS, Mean, Randomization Baseline (Week 5) (adults with IH [2]; BID Cohort, SDX (N = 17)): 7.5
ESS, Difference in LS Mean (SE) (adults with IH [2]; BID Cohort, p-value 0.005): −5.6 (1.88)
ESS, Mean Change from Randomization Baseline to Week 7 (adults with IH [2]; QD Cohort, SDX (N = 15)): 0.0
ESS, Mean, End of Withdrawal Period (Week 7) (adults with IH [2]; QD Cohort, SDX (N = 15)): 7.5
ESS, Mean, Titration Baseline (adults with IH [2]; QD Cohort, SDX (N = 15)): 16.9
ESS, Mean, Randomization Baseline (Week 5) (adults with IH [2]; QD Cohort, SDX (N = 15)): 7.5
ESS, Difference in LS Mean (SE) (adults with IH [2]; QD Cohort, p-value 0.818): 0.5 (2.07)
Decrease in mean ESS score (adults with IH [2]; both QD and BID cohorts, end of the 5-week titration period): 8-10 points
IHSS, Mean Change from Randomization Baseline to Week 7 (adults with IH [3]; BID Cohort, SDX (N = 17)): 0.3
IHSS, Mean, End of Withdrawal Period (Week 7) (adults with IH [3]; BID Cohort, SDX (N = 17)): 21.6
IHSS, Mean, Titration Baseline (adults with IH [3]; BID Cohort, SDX (N = 17)): 34.3
IHSS, Mean, Randomization Baseline (Week 5) (adults with IH [3]; BID Cohort, SDX (N = 17)): 21.3
IHSS, Difference in LS Mean (SE) (adults with IH [3]; BID Cohort, p-value 0.104): −9.0 (3.48)
IHSS, Mean Change from Randomization Baseline to Week 7 (adults with IH [3]; QD Cohort, SDX (N = 15)): 0.7
IHSS, Mean, End of Withdrawal Period (Week 7) (adults with IH [3]; QD Cohort, SDX (N = 15)): 19.3
IHSS, Mean, Titration Baseline (adults with IH [3]; QD Cohort, SDX (N = 15)): 35.4
IHSS, Mean, Randomization Baseline (Week 5) (adults with IH [3]; QD Cohort, SDX (N = 15)): 18.6
IHSS, Difference in LS Mean (SE) (adults with IH [3]; QD Cohort, p-value 0.208): 0.9 (3.73)
Decrease in mean IHSS score (adults with IH [3]; all patients, 5-week titration period): 12-17 points
Change in mean IHSS score (adults with IH [3]; patients continuing treatment during the 2-week withdrawal period): no more than 0.7 points
SI-VAS, Mean Change from Randomization Baseline to Week 7 (adults with IH [4]): 1.1
SI-VAS, Mean, End of Withdrawal Period (Week 7) (adults with IH [4]): 49.0
SI-VAS, Mean, Titration Baseline (adults with IH [4]; before treatment): 68.5
SI-VAS, Mean, Randomization Baseline (Week 5) (adults with IH [4]; end of open-label titration): 45.0
